# How the values were obtained:
# [1] = test system: MV4-11 (human biphenotypic B myelomonocytic leukaemia); experiment: Antiproliferative MTT assay, 72 h exposure; assay type: cell-based
# Experimental: (§1) The biological studies were performed in vitro using human cancer cell lines: MV4-11 (human biphenotypic B myelomonocytic leukaemia), A-549 (non-small cell lung cancer), MCF-7 (breast cancer), LoVo (colon cancer), LoVo/DX (colon cancer drug resistant), HepG2 (liver cancer) and BALB/3T3 (normal mice fibroblasts). These lines were obtained from American Type Culture Collection (Rockville, Maryland, U.S.A.). The cell line is being maintained in the Institute of Immunology and Experimental Therapy, Wroclaw, Poland. All cell lines were grown at 37°C with 5% CO2 humidified atmosphere and were cultured in cultured medium according to the method described before.
# (§2) Prior to usage, the compounds were dissolved in DMSO or in mixture of 99.8% ethanol and DMSO (1:1) to the concentration of 25 or 50 mM, and subsequently diluted in culture medium to reach the required concentrations (ranging from 5 to 625 μM).
# (§3) Twenty-four hours prior to the addition of tested compounds, the cells were plated in 96-well plates (Sarstedt, Germany) at a density of 1 × 10^4 cells per well in 100 μL of culture medium. The assay was performed after 72 h of exposure to varying concentrations of the tested agents. The in vitro cytotoxic effect of tested agents was examined using the MTT (for MV4-11 cells) or SRB assay which were described previously. Each compound in each concentration was tested in triplicate in a single experiment, which was repeated 3–5 times.
# (§4) The results of antiproliferative activity were given as IC50 values. Using this parameter we calculated also the resistance indexes (RI) dividing the IC50 values of selected compounds estimated for drug resistant cell LOVO/DX line by respective values designated for drug sensitive LoVo line. According to Harker et al. three categories of the cells could be distinguished: (a) the cells are drug-sensitive—if the ratio approaches 0–2; (b) the cells are moderately drug-resistant—if the ratio ranges from 2 to 10; (c) the cells are markedly drug-resistant—if the ratio is higher than 10.
# [2] = test system: LoVo/DX (colon cancer drug resistant); experiment: Antiproliferative SRB assay, 72 h exposure; assay type: cell-based, human; details: mean ± SD of 3–5 experiments, n.a. = no activity in concentration of 5, 25, 125, 625 μM
# Experimental: as §1, §2, §3, §4
# LoVo (colon cancer) = experiment: Antiproliferative SRB assay, 72 h exposure; assay type: cell-based, human; details: SRB, 72 h, mean ± SD of 3–5 experiments, n.a. = no activity in concentration of 5, 25, 125, 625 μM
# Experimental: as §1, §2, §3, §4
# [3] = test system: A-549 (non-small cell lung cancer); experiment: Antiproliferative SRB assay, 72 h exposure; assay type: cell-based, human; details: n.a. = no activity in concentration of 5, 25, 125, 625 μM
# Experimental: as §1, §2, §3, §4
# HepG2 (liver cancer) = experiment: Antiproliferative SRB assay, 72 h exposure; assay type: cell-based, human; details: n.a. = no activity in concentration of 5, 25, 125, 625 μM
# Experimental: as §1, §2, §3, §4
# MCF-7 (breast cancer) = experiment: Antiproliferative SRB assay, 72 h exposure; assay type: cell-based, human; details: n.a. = no activity in concentration of 5, 25, 125, 625 μM
# Experimental: as §1, §2, §3, §4
# [4] = test system: BALB/3T3 (normal mice fibroblasts); experiment: Antiproliferative SRB assay, 72 h exposure; assay type: cell-based; details: n.a. = no activity in concentration of 5, 25, 125, 625 μM
# Experimental: as §1, §2, §3, §4
# [5] = test system: drug resistant LOVO/DX line vs drug sensitive LoVo line; experiment: Resistance index (RI): IC50 LOVO/DX divided by IC50 LoVo; assay type: cell-based, human; details: RI = IC50 resistant line / IC50 non-resistant line; 0<RI<2 able to overcome drug resistance; 2<RI<10 moderate ability; RI>10 no influence
# Text: as §4
# [6] = Homo sapiens, MV4-11, mean ± SD of 3–5 independent experiments
# [7] = Homo sapiens, A549, mean ± SD of 3–5 experiments
# [8] = Homo sapiens, HepG2, mean ± SD of 3–5 experiments
# [9] = Homo sapiens, MCF7, mean ± SD of 3–5 experiments
# [10] = Mus musculus, BALB/3T3, mean ± SD of 3–5 experiments
# [11] = mean ± SD of 3–5 independent experiments
compound,measurement,setting,value
C=CC(C)(CCCC(C)CCCC(C)CCCC(C)C)CC(=O)OC[C@@H](O)COP(=O)([O-])OCC[N+](C)(C)C (stereo partly shown) [Compound 8d],IC50,[1]; [6],47.4 ± 6.35 µM
"CCC/C=C1/C(C)(C)CCCC1(C)CC(=O)OC[C@H](COP(=O)([O-])OCC[N+](C)(C)C)OC(=O)CCCCCCCCCCCCCCC (stereo partly drawn) [Compound 9c, (2’R)-1’-{2-[(3R,2""E)-2""-butylidene-1"",3"",3""-trimethyl]cyclohexyl}acetyl-2’-palmitoyl-sn-glycero-3’-phospocholine + (2’R)-1’-{2-[(3S,2""E)-2""-butylidene-1"",3"",3""-trimethyl]cyclohexyl}acetyl-2’-palmitoyl-sn-glycero-3’-phospocholine]",IC50,[1]; [6],50 ± 9 µM
same,IC50,"[2]; Homo sapiens, LoVo/DX",75.5 ± 8.1 µM
same,IC50,"LoVo (colon cancer); Homo sapiens, LoVo",61.5 ± 4.84 µM
same,IC50,[3]; [7],68.3 ± 1.5 µM
same,IC50,HepG2 (liver cancer); [8],303 ± 77.6 µM
same,IC50,MCF-7 (breast cancer); [9],102 ± 11.2 µM
same,IC50,[4]; [10],292 ± 41.5 µM
"C=CC(C)(CC/C=C(\C)CCC=C(C)C)CC(=O)O (stereo not shown) [2 (FARA), (E)-3,7,11-trimethyl-3-vinyldodeca-6,10-dienoic acid]",IC50,[1]; [6],153 ± 20.1 µM
same,Resistance index (RI),[5],0.88
same,IC50,"[2]; Homo sapiens, LoVo/DX",87 ± 14.4 µM
same,IC50,"LoVo (colon cancer); Homo sapiens, LoVo",99.2 ± 26 µM
same,IC50,[3]; [7],91 ± 11.5 µM
same,IC50,HepG2 (liver cancer); [8],267 ± 15.5 µM
same,IC50,MCF-7 (breast cancer); [9],162 ± 5.9 µM
same,IC50,[4]; [10],230 ± 40.3 µM
"CCCCCCCCCCCCCCCC(=O)O [Palmitic acid, reference compound]",IC50,[1]; [6],161 ± 78.9 µM
same,IC50,"[2]; Homo sapiens, LoVo/DX",86.3 ± 21.3 µM
same,IC50,"LoVo (colon cancer); Homo sapiens, LoVo",42.1 ± 4.6 µM
same,IC50,[3]; [7],56.4 ± 1.6 µM
same,IC50,HepG2 (liver cancer); [8],275 ± 85.2 µM
same,IC50,MCF-7 (breast cancer); [9],123 ± 63.4 µM
same,IC50,[4]; [10],60.4 ± 4 µM
C=CC(C)(CCCC(C)CCCC(C)CCCC(C)C)CC(=O)OC[C@H](COP(=O)([O-])OCC[N+](C)(C)C)OC(=O)CC(C)(C=C)CCCC(C)CCCC(C)CCCC(C)C (stereo partly shown) [Compound 6d],IC50,[1]; [6],42.4 ± 9.52 µM
C=CC(C)(CCC=C(C)C)CC(=O)OC[C@H](COP(=O)([O-])OCC[N+](C)(C)C)OC(=O)CC(C)(C=C)CCC=C(C)C (stereo partly shown) [Compound 6a],IC50,[1]; [6],50.1 ± 3.5 µM
same,IC50,"[2]; Homo sapiens, LoVo/DX",245 ± 19.7 µM
same,IC50,"LoVo (colon cancer); Homo sapiens, LoVo",230 ± 6.9 µM
same,IC50,[3]; [7],263 ± 19.7 µM
same,IC50,HepG2 (liver cancer); [8],286.4 ± 1.3 µM
same,IC50,MCF-7 (breast cancer); [9],209 ± 12.9 µM
same,IC50,[4]; [10],280 ± 8.2 µM
"CCC/C=C1/C(C)(C)CCCC1(C)CC(=O)OC[C@H](COP(=O)([O-])OCC[N+](C)(C)C)OC(=O)CC1(C)CCCC(C)(C)/C1=C/CCC (stereo partly drawn) [Compound 6c, (2’R)-1’,2’-di{2-[(3R,2""E)-2""-butylidene-1"",3"",3""-trimethyl]cyclohexyl}acetyl-sn-glycero-3’-phospocholine + (2’R)-1’,2’-di{2-[(3S,2""E)-2""-butylidene-1"",3"",3""-trimethyl]cyclohexyl}acetyl-sn-glycero-3’-phospocholine]",IC50,[1]; [6],38.6 ± 11.1 µM
same,IC50,"[2]; Homo sapiens, LoVo/DX",56.9 ± 0.2 µM
same,IC50,"LoVo (colon cancer); Homo sapiens, LoVo",53.1 ± 3.6 µM
same,IC50,[3]; [7],52.3 ± 1.9 µM
same,IC50,HepG2 (liver cancer); [8],56.7 ± 0.1 µM
same,IC50,MCF-7 (breast cancer); [9],57.8 ± 2.6 µM
same,IC50,[4]; [10],57.3 ± 0.3 µM
"C=CC(C)(CCC=C(C)C)CC(=O)O (stereo not shown) [1 (GERA), 3,7-dimethyl-3-vinyloct-6-enoic acid]",IC50,[1]; [6],256 ± 86.1 µM
same,Resistance index (RI),[5],0.85
same,IC50,"[2]; Homo sapiens, LoVo/DX",281 ± 13.6 µM
same,IC50,"LoVo (colon cancer); Homo sapiens, LoVo",329 ± 54.5 µM
same,IC50,[3]; [7],301 ± 66.9 µM
same,IC50,HepG2 (liver cancer); [8],517 ± 98.3 µM
same,IC50,MCF-7 (breast cancer); [9],310 ± 84 µM
"CCC/C=C1/C(C)(C)CCCC1(C)CC(=O)OC[C@@H](O)COP(=O)([O-])OCC[N+](C)(C)C (stereo partly drawn) [Compound 8c, (2’R)-1’-{2-[(3R,2""E)-2""-butylidene-1"",3"",3""-trimethyl]cyclohexyl}acetyl-2’-hydroxy-sn-glycero-3’-phospocholine + (2’R)-1’-{2-[(3S,2""E)-2""-butylidene-1"",3"",3""-trimethyl]cyclohexyl}acetyl-2’-hydroxy-sn-glycero-3’-phospocholine]",IC50,[1]; [6],203 ± 15 µM
same,Resistance index (RI),[5],1.23
same,IC50,"[2]; Homo sapiens, LoVo/DX",382 ± 32.4 µM
same,IC50,"LoVo (colon cancer); Homo sapiens, LoVo",284 ± 9.7 µM
same,IC50,MCF-7 (breast cancer); [9],470 ± 52.9 µM
"C=CC(C)(CCCC(C)CCCC(C)CCCC(C)C)CC(=O)O (stereo not shown) [4 (PHYTA), 3,7,11,15-Tetramethyl-3-vinylhexadecanoic acid]",IC50,[1]; [6],39.3 ± 5.85 µM
"N.N.[Cl][Pt][Cl] [Cisplatin, cisplatin, reference compound]",IC50,[1]; [11],1.3 ± 0.47 µM
same,IC50,[2],3.17 ± 0.2 µM
same,IC50,LoVo (colon cancer),2.56 ± 0.35 µM
same,IC50,[3]; mean ± SD of 3–5 experiments,8.6 ± 0.7 µM
same,IC50,HepG2 (liver cancer); mean ± SD of 3–5 experiments,2.38 ± 0.64 µM
same,IC50,MCF-7 (breast cancer); mean ± SD of 3–5 experiments,8.1 ± 0.03 µM
same,IC50,[4]; mean ± SD of 3–5 experiments,4.2 ± 1.1 µM
C=CC(C)(CCC=C(C)C)CC(=O)OC[C@H](COP(=O)([O-])OCC[N+](C)(C)C)OC(=O)CCCCCCCCCCCCCCC (stereo partly shown) [Compound 9a],IC50,[1]; [6],31.8 ± 1.62 µM
same,IC50,"[2]; Homo sapiens, LoVo/DX",52.7 ± 3.3 µM
same,IC50,"LoVo (colon cancer); Homo sapiens, LoVo",32.8 ± 5.1 µM
same,IC50,[3]; [7],38.3 ± 6.7 µM
same,IC50,HepG2 (liver cancer); [8],59.2 ± 4.6 µM
same,IC50,MCF-7 (breast cancer); [9],40 ± 1.9 µM
same,IC50,[4]; [10],57.6 ± 1 µM
C=CC(C)(CC/C=C(\C)CCC=C(C)C)CC(=O)OC[C@H](COP(=O)([O-])OCC[N+](C)(C)C)OC(=O)CCCCCCCCCCCCCCC (stereo partly shown) [Compound 9b],IC50,[1]; [6],299 ± 39.3 µM
same,IC50,"[2]; Homo sapiens, LoVo/DX",537 ± 61.2 µM
same,IC50,"LoVo (colon cancer); Homo sapiens, LoVo",269 ± 29.9 µM
same,IC50,MCF-7 (breast cancer); [9],489 ± 57.7 µM
C=CC(C)(CCCC(C)CCCC(C)CCCC(C)C)CC(=O)OC[C@H](COP(=O)([O-])OCC[N+](C)(C)C)OC(=O)CCCCCCCCCCCCCCC (stereo partly shown) [Compound 9d],IC50,[1]; [6],259 ± 37 µM
"CCCCCCCCCCCCCCCC(=O)OC[C@H](COP(=O)([O-])OCC[N+](C)(C)C)OC(=O)CCCCCCCCCCCCCCC [DPPC, reference compound]",IC50,[1]; [11],179 ± 30.2 µM
same,IC50,LoVo (colon cancer),274 ± 17.1 µM
same,IC50,[3]; mean ± SD of 3–5 experiments,230 ± 31.3 µM
same,IC50,MCF-7 (breast cancer); mean ± SD of 3–5 experiments,398 ± 194 µM
same,IC50,[4]; mean ± SD of 3–5 experiments,48.8 ± 2.1 µM
C=CC(C)(CCC=C(C)C)CC(=O)OC[C@@H](O)COP(=O)([O-])OCC[N+](C)(C)C (stereo partly shown) [Compound 8a],IC50,[1]; [6],269 ± 18 µM
same,Resistance index (RI),[5],1.61
same,IC50,"[2]; Homo sapiens, LoVo/DX",469 ± 3.2 µM
same,IC50,"LoVo (colon cancer); Homo sapiens, LoVo",245 ± 68.5 µM
same,IC50,MCF-7 (breast cancer); [9],372 ± 28.1 µM
"COc1cccc2c1C(=O)c1c(O)c3c(c(O)c1C2=O)C[C@@](O)(C(=O)CO)C[C@@H]3O[C@H]1C[C@H](N)[C@H](O)[C@H](C)O1 [Doxorubicin, doxorubicin, reference compound]",Resistance index (RI),[5],55.81
C=CC(C)(CCCC(C)CCCC(C)CCCC(C)C)CC(=O)O[C@H](COC(=O)CCCCCCCCCCCCCCC)COP(=O)([O-])OCC[N+](C)(C)C (stereo partly shown) [Compound 7d],IC50,[1]; [6],259 ± 32.5 µM

# — publication PMC5308787, “Isoprenoid-phospholipid conjugates as potential therapeutic agents: Synthesis, characterization and antiproliferative studies” (PLoS ONE, 2017)
